pIC50: −log10 of the molar value. Where two headings read alike, the source gives them in different places.
Tests used:
[1] = tested on: SKBr3 (estrogen receptor negative, Her2 over-expressing breast cancer cells); details: background, Marcu, et al., 2000; read-out: Hsp90 C-terminal inhibitor efficiency in SKBr3 cells; cited from earlier work
[2] = tested on: SKBr3 (estrogen receptor negative, Her2 over-expressing breast cancer cells); experiment: Anti-proliferation assay (MTS/PMS, 72 h), SKBr3; assay type: cell-based; details: Homo sapiens, SK-BR-3
[3] = tested on: MCF-7 (estrogen receptor positive breast cancer cells); experiment: Anti-proliferation assay (MTS/PMS, 72 h), MCF-7; assay type: cell-based; details: Homo sapiens, MCF7
HCT-116 = experiment: Anti-proliferation assay, HCT-116; assay type: cell-based; details: Homo sapiens, HCT-116
Outline: (§1)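 First, cells grown in DMEM/F12 plus 10% FBS were plated at 2000 per well and left to attach overnight. Next, graded compound concentrations were added at 1% DMSO final for 72 h. Finally, viable cell number was measured with MTS/PMS and IC50 derived.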

PC-3 = experiment: Anti-proliferation assay, PC-3; assay type: cell-based; details: Homo sapiens, PC-3, Prostate Cancer
Outline: as §1

A-549 = experiment: Anti-proliferation assay, A-549; assay type: cell-based; details: Homo sapiens, A549
Outline: as §1

MDA1986 = experiment: Anti-proliferation assay, MDA1986; assay type: cell-based; details: MDA1986, HSNCC
Outline: as §1

JMAR = experiment: Anti-proliferation assay, JMAR; assay type: cell-based; details: JMAR, HSNCC
Outline: as §1

MDAMB231 = experiment: Anti-proliferation assay, MDAMB231; assay type: cell-based; details: Homo sapiens, MDA-MB-231, Tri-Neg
Outline: as §1

DRO81-1 = experiment: Anti-proliferation assay, DRO81-1; assay type: cell-based; details: Thyroid
Outline: as §1

BCPAP = experiment: Anti-proliferation assay, BCPAP; assay type: cell-based; details: Homo sapiens, BCPAP, Thyroid
Experimental: (§2) Cells were maintained in a 1:1 mixture of Advanced DMEM/F12 (Gibco) supplemented with non-essential amino acids, L-glutamine (2 mM), streptomycin (500 μg/mL), penicillin (100 units/mL), and 10% FBS. Cells were grown to confluence in a humidified atmosphere (37° C., 5% CO2), seeded (2000/well, 100 μL) in 96-well plates, and allowed to attach overnight. Compound at varying concentrations in DMSO (1% DMSO final concentration) was added, and cells were returned to the incubator for 72 h. At 72 h, the number of viable cells was determined using an MTS/PMS cell proliferation kit (Promega) per the manufacturer's instructions. Cells incubated in 1% DMSO were used at 100% proliferation, and values were adjusted accordingly. IC50 values were calculated from separate experiments performed in triplicate using GraphPad Prism.

MRC5 = experiment: Anti-proliferation assay, MRC5 (normal); assay type: cell-based; details: Homo sapiens
Outline: as §1

HMLE = experiment: Anti-proliferation assay, HMLE (normal); assay type: cell-based; details: HMLE
Outline: as §1

[4] = tested on: SKBr3 and MCF-7 cell lines; experiment: Anti-proliferative activity against both breast cancer cell lines (results in words); assay type: cell-based; details: text b189, two breast cancer cell lines
Experimental: as §2
The anti-proliferative activity of these compounds is evaluated against two breast cancer cell lines, SKBr3 (estrogen receptor negative, Her2 over-expressing breast cancer cells) and MCF-7 (estrogen receptor positive breast cancer cells).

[5] = Table 7, prenylated phenyl ureas
[6] = Table 6, substituted phenyl ureas, Breast Cancer, read-out: IC50 SKBr3
[7] = Table 6, substituted phenyl ureas, Breast Cancer, read-out: IC50 MCF-3
[8] = Table 6, substituted phenyl ureas
[9] = MRC5, Table 6, substituted phenyl ureas

SMILES | pIC50 [2, 6] | pIC50 [3, 7] | pIC50 (HCT-116; [8]) | pIC50 (PC-3; [8]) | pIC50 (A-549; [8]) | pIC50 (MDA1986; [8]) | pIC50 (JMAR; [8]) | pIC50 (MDAMB231; [8]) | pIC50 (DRO81-1; [8]) | pIC50 (BCPAP; [8]) | pIC50 (MRC5; [9]) | pIC50 (HMLE; [8]) | also measured
CO[C@@H]1[C@@H](OC(N)=O)[C@@H](O)[C@H](Oc2ccc3c(O)c(NC(=O)c4ccc(O)c(CC=C(C)C)c4)c(=O)oc3c2C)OC1(C)C [Novobiocin] | – | – | – | – | – | – | – | – | – | – | – | – | pIC50 [1]: ~3.15
CC(C)=CCc1cc(NC(=O)Nc2cc3ccc(OC4CCN(C)CC4)c(C)c3oc2=O)ccc1O [OH, 1-(4-hydroxy-3-(3-methylbut-2-en-1-yl)phenyl)-3-(8-methyl-7-((1-methylpiperidin-4-yl)oxy)-2-oxo-2H-chromen-3-yl)urea] | – | – | – | – | – | – | – | – | – | – | – | – | pIC50 ([2]; Table 7, prenylated phenyl ureas, Breast Cancer, read-out: IC50 SKBr3): 6.41; pIC50 ([2]; amide versus urea linkage, read-out: IC50 for SKBr3): 6.41; pIC50 ([3]; Table 7, prenylated phenyl ureas, Breast Cancer, read-out: IC50 MCF-3): 6.43; pIC50 ([3]; amide versus urea linkage, read-out: IC50 for MCF-3): 6.43; pIC50 (HCT-116; [5]): 6.41; pIC50 (PC-3; [5]): 6.54; pIC50 (A-549; [5]): 6.60; pIC50 (MDA1986; [5]): 5.87; pIC50 (JMAR; [5]): 6.04; pIC50 (MDAMB231; [5]): 6.18; pIC50 (DRO81-1; [5]): 5.96; pIC50 (BCPAP; [5]): 6.00; pIC50 (MRC5; MRC5, Table 7, prenylated phenyl ureas): 5.40; pIC50 (HMLE; [5]): 5.32; increase in inhibition, urea versus amide linkage [4]: 2-3 fold
CC(=O)Oc1ccc(NC(=O)Nc2cc3ccc(OC4CCN(C)CC4)c(C)c3oc2=O)cc1 [p-OAc, 4-(3-(8-methyl-7-((1-methylpiperidin-4-yl)oxy)-2-oxo-2H-chromen-3-yl)ureido)phenyl acetate] | 5.83 | 5.76 | 5.58 | 5.94 | 5.82 | 5.70 | 5.46 | 6.07 | 5.43 | 5.26 | 4.81 | 4.80 | –
Cc1c(OC2CCN(C)CC2)ccc2cc(NC(=O)Nc3ccc(OC(F)(F)F)cc3)c(=O)oc12 [p-OCF3, 1-(8-methyl-7-((1-methylpiperidin-4-yl)oxy)-2-oxo-2H-chromen-3-yl)-3-(4-(trifluoromethoxy)phenyl)urea] | 6.39 | 6.40 | 6.57 | 6.80 | 6.51 | 6.06 | 5.44 | 6.16 | 6.64 | 6.06 | 5.48 | 5.39 | –

Reference: patent US10030006B2, “Coumarin based Hsp90 inhibitors with urea and ether substituents” (University of Kansas, priority 2013, dated 2018)
